Structures can show the parent of a compound that is named as a salt.
What was measured:
Bovine LOX = target: T1, Bovine LOX (Bos taurus, UniProt P33072); assay: LOX inhibition, Amplex Red oxidation assay; assay type: biochemical; details: for IC50: incubation with enzyme 30 min at 37° C, read-out: Bovine LOX Activity IC50
T1 sequence (P33072 170-418): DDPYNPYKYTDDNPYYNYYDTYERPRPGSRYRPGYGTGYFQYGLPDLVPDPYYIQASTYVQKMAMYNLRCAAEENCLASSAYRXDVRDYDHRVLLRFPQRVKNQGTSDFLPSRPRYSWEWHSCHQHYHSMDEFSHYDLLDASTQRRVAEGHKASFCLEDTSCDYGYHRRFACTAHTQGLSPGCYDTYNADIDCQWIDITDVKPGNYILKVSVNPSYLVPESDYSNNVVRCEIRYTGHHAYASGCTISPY
Method: (§1) LOX and LOXL protein family members can be acquired as recombinant active proteins from commercial sources, or extracted from animal tissues like bovine aorta, tendons, pig skin; or prepared from cell cultures. […] The assay was developed using either 384 or 96 well format. Briefly, in a standard black, clear bottom 384 well plate assay 25 μL of a dilution of any of the isoenzymes and orthologues in 1.2 M urea, 50 mM sodium borate buffer (pH 8.2) were added into each well in the presence of 1 μM mofegiline and 0.5 mM pargyline (to inhibit SSAO and MAO-B and MAO-A, respectively; not necessary if the enzyme is from a recombinant or purified form). Test compounds were dissolved in DMSO and tested in a Concentration Response Curve (CRC) with 11 data points, typically in the micromolar or nanomolar range after incubation with the enzyme for 30 min at 37° C. 25 μL of a reaction mixture containing twice the KM concentration of putrescine (Sigma Aldrich, e.g. 20 mM for LOX and LOXL1 or 10 mM for LOXL2 and 4 mM for LOXL3 and LOXL4), 120 μM Amplex Red (Sigma Aldrich) and 1.5 U/mL horseradish peroxidase (Sigma Aldrich) prepared in 1.2 M urea, 50 mM sodium borate buffer (pH 8.2) were then added to the corresponding wells. The above volumes were doubled in the case of 96 wells plate. The fluorescence (RFU) was read every 2.5 min for 30 min at […] 37° C., excitation 565 nm and emission 590 (Optima; BMG labtech). The slope of the kinetics for each well was calculated using MARS data analysis software (BMG labtech) and this value was used to deduce the IC50 value (Dotmatics). The ability of the inventive compounds to inhibit the amine oxidase activity of LOX and other family members is shown in Table 4.

Human recombinant LOXL2 = target: T2, Human recombinant LOXL2 (Homo sapiens, UniProt Q9Y4K0); assay: LOXL2 inhibition, Amplex Red oxidation assay; assay type: biochemical; details: incubation with enzyme 30 min at 37° C; read-out: Human recombinant LOXL2 Activity IC50
T2 sequence (Q9Y4K0 26-774): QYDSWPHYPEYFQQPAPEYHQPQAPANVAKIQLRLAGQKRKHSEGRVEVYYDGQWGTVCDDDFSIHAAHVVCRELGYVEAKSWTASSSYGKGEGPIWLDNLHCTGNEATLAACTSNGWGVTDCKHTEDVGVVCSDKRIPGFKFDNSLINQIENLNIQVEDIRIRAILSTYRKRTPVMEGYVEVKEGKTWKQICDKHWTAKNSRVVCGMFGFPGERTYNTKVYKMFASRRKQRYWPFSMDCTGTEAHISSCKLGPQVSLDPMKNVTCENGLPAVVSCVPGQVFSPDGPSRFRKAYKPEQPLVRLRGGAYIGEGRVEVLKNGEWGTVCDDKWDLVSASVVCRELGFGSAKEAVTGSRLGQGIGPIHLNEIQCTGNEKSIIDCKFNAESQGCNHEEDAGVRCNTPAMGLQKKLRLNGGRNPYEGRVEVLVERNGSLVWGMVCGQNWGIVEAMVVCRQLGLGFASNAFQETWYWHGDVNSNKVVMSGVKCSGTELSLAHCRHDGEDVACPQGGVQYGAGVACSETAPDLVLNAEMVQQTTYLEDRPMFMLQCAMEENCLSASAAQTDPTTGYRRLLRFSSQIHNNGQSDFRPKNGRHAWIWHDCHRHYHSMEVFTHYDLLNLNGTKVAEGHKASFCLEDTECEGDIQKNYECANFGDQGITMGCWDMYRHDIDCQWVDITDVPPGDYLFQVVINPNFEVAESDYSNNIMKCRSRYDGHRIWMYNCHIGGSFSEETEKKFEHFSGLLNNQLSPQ
Method: as §1

Structure (SMILES) | IC50 (Bovine LOX) [µM] | IC50 (Human recombinant LOXL2) [µM] | inhibitory activity (in words) (Bovine LOX; LOX / LOXL preparations, compared with Compound 1)
NC/C=C(\F)C(F)(F)S(=O)(=O)c1ccccc1N1CCS(=O)(=O)CC1 [Compound 7, (Z)-4-(2-((4-amino-1,1,2--trifluorobut-2-en-1-yl)sulfonyl)phenyl)thiomorpholine 1,1-dioxide, hydrochloride] | 22.8 | 2 | –
Cc1occc1S(=O)(=O)C(F)(F)/C(F)=C/CN [Compound 15, (Z)-3,4,4-trifluoro-4-((2-methylfuran-3-yl)sulfonyl)but-2-en-1-amine] | 5.9 | 0.7 | –
CS(=O)(=O)c1cccc(S(=O)(=O)C(F)(F)/C(F)=C/CN)c1 [Compound 3, (Z)-3,4,4-trifluoro-4-((3-(methylsulfonyl)phenyl)sulfonyl)but-2-en-1-amine] | 11.1 | 0.7 | –
CS(=O)(=O)c1cccc(Oc2cccc(S(=O)(=O)C(F)(F)/C(F)=C/CN)c2)c1 [Compound 20, (Z)-3,4,4-trifluoro-4-((3-(3-(methylsulfonyl)phenoxy)phenyl)sulfonyl)but-2-en-1-amine] | 4.4 | – | –
NC/C=C(\F)C(F)(F)S(=O)(=O)c1ccccc1O [Compound 11, (Z)-2-((4-amino-1,1,2-trifluorobut-2-en-1-yl)sulfonyl)phenol] | > 30 | 1.7 | –

More lines, main results first:

IC50 (Bovine LOX) [µM] | IC50 (Human recombinant LOXL2) [µM] | Structure (SMILES) | inhibitory activity (in words) (Bovine LOX; LOX / LOXL preparations, compared with Compound 1)
3.6 | 0.7 | [2H]c1c([2H])c([2H])c(S(=O)(=O)C(F)(F)/C(F)=C/CN)c([2H])c1[2H] [Compound 18, (Z)-3,4,4-trifluoro-4-((phenyl-d5)sulfonyl)but-2-en-1-amine] | –
23.1 | 2.1 | NC/C=C(/F)C(F)(F)S(=O)(=O)c1ccccc1 [Compound 1(E)] | significantly reduced inhibitory activity
3.9 | 0.5 | Cc1cccc(S(=O)(=O)C(F)(F)/C(F)=C/CN)c1 [Compound 13, (Z)-3,4,4-trifluoro-4-(m-tolylsulfonyl)but-2-en-1-amine] | –
